One series relates to mice. Put plainly: animal or person. Type of series: in vivo. The settings on record: mice. How it is done: (§1) All tests were performed during the light period. Groups of mice, rats and rabbits were injected intravenously (lateral tail vein) over 10 s with each dose of test compound, placed in separate boxes to reduce external stimuli and assessed for the loss of righting reflex. Dosing was performed using mg/kg scheme. A set of dose levels was chosen, and depending on whether the loss of righting reflex was observed, extra doses were introduced to provide data for the loss of righting reflex over a narrow dose range to allow potency calculations. From the percentage of mice, rats and rabbits in each group showing loss of righting reflex for ≥30 s, a probit analysis (SAS Institute) was performed to obtain an HD50 for each compound with 95% confidence limits.
(§2) Immediately following the injection, the mice, rats and rabbits were tested for loss of righting reflex. […] Once a loss was observed, the interval between the loss of righting reflex and the return to righting reflex was recorded. The anesthetized animals recovered righting reflexes spontaneously. To compare the duration of LORR of each compound at equipotent doses, groups of mice, rats and rabbits were injected with each compound at 2× HD50 over 10 s.
(§3) Time to walk was the time required after righting before mice and rabbits walked from the center to the periphery of a 30-cm diameter dise.
(§4) The rotarod test was conducted to evaluate the recovery to the motor coordination. Before the LORR test, mice were trained for 2 consecutive days. Trained mice could maintain their balance on rod for more than 2 mins. After the mice could walk from the center to the periphery of a 30-cm diameter dise, they were put on the rotarod. Mice were classified as behavioral recovery when, on being placed on the rod, they could maintain their balance for 20 s. The time to behavioral recovery was the time required after mice walked from the centre to the periphery of a 30-cm diameter disc before they could maintain their balance on rod for 20 s.

A further series concerns rat. Type of series: in vivo. How it is done: as §1, §2, §3, §4
Series [1] is described as follows: In vitro metabolic half-life in rat whole blood. Type of series: in vitro ADME. The conditions noted are these: male, Sprague-Dawley Rat (n = 3), 37°C, read-out: Mean t1/2 Value. How it is done:
Human whole blood stability experiments were conducted in whole blood from four human donors (male, 18–25 years). Single experiments were conducted with pooled blood from Sprague-Dawley rats (male, 8 weeks, n = 3), New Zealand White rabbits (male, 8–10 weeks, n = 3), Beagle dogs (male, 2–3 years, n = 3) and Cynomolgus monkeys (male, 3–4 years, n = 3). All the blood samples were provided by Xuzhou Medical College. A 1.35-ml aliquot of blood was warmed at 37°C for 5 min and hypnotic (from a 40 mM stock in DMSO solution) was added to a final concentration of 200 µM. After the specified incubation time, a 150-µl sample was removed and the metabolic reaction was quenched using 150-µl acetonitrile. Zero time-point samples were prepared by adding 150-µl acetonitrile (using a 4 mM stock in DMSO) to 150-µl blood before addition of the hypnotic. The quenched samples were centrifuged, and the supernatant was separated and stored at −20°C until analyzed. Hypnotic concentrations in thawed samples were determined by high-performance liquid chromatography using a 3-µm phenyl 4.6×50-mm C-A-25, ACE column with the UV detector set at 240 nm. […] The lower limit of quantitation of this assay is 3 µM and the accuracy within 15% at 10 µM. The metabolic half-lives were quantified from the incubation time-dependent change in drug concentration.

Series [2] deals with GABAA and dopamine D2, D3, H1, 5HT1A, 5HT2A, 5HT2C, 5HTT, α1 and α2 receptors. The settings on record: 50 µmol, GABAA vs off-target receptors. The procedure: All the new compounds were dissolved in 5% DMSO.
Total binding was determined in the absence of no-specific binding and compounds. Specific binding was determined in the presence of compounds. […]
Rat cerebral cortex was homogenized in 20 volumes of ice-cold Tris-HCl buffer (50 mM, pH 7.7) using an ULTRA TURAX homogeniser, and was then centrifuged at 32000 g for 10 min. […] The final pellet was resuspended in Tris-HCl buffer containing 10 µM Pargyline, 4 mM CaCl2 and 0.1% ascorbic acid. […] The incubation was followed by a rapid vacuum filtration through Whatman GF/B glass filters, and the filtrates were washed twice with 5 mL cold buffer and transferred to scintillation vials. Scintillation fluid (3.0 mL) was added and the radioactivity bound was measured using a Beckman LS 6500 liquid scintillation counter.
Rat cerebral cortex was homogenized in 20 volumes of ice-cold Tris-HCl buffer (50 mM, pH 7.7) using an ULTRA TURAX homogeniser, and centrifuged at 32000 g for 20 min. The resulting pellet was resuspended in the same quantity of the buffer centrifuged for 20 min. […] Scintillation fluid (3.0 mL) was added and the radioactivity bound was measured using a Beckman LS 6500 liquid scintillation counter.
The resulting pellet was resuspended in the same quantity of the buffer centrifuged for 20 min.

Regarding `CCOc1cc(CC(=O)OCC(F)(F)F)ccc1OCC(=O)N(CC)CC` [Compound 5j, 2,2,2-trifluoroethyl 2-(4-(2-(diethylamino)-2-oxoethoxy)-3-ethoxyphenyl)acetate], the ED50 in the series with mice (Mus musculus, IV over 10 s, 95% confidence limits, read-out: HD50 (the source's name)) was found to be 24.6 mg/kg. Moreover, the Time to walk with mice (2× HD50) came out at 17.3 ± 5.8 s; in the series with rat (2× HD50 dose, mean ± SD), 14.2 ± 5.4 s. Moreover, the “time to behavioral recovery” value was determined as 28.2 ± 6.4 s with mice (2× HD50, rotarod) and 22.8 ± 3.2 s in the series with rat (2× HD50 dose, mean ± SD). The “Duration of LORR” value stood at 59.1 ± 7.4 s in the series on mice (IV 2× HD50, mean ± SD (n = 10)) and 66.5 ± 8.7 s with rat (2× HD50 dose, mean ± SD). In addition, the Onset time in the series with mice (IV, mean ± SD (n = 10)) worked out at 5.3 ± 1.2 s. The HD50 in the series on rat (IV, 95% confidence limits) is 12.9 (10.6∼13.7) mg/kg. Moreover, the half-life at 200 µM in series [1] worked out at 24 ± 6 s. In addition, in series [2], the binding selectivity profile result is recorded as “selective binding to the GABAA receptor”.

Values taken from paper PMC4010497, “Synthesis and Evaluation of Fluorine-Substituted Phenyl Acetate Derivatives as Ultra-Short Recovery Sedative/Hypnotic Agents” (PLoS ONE, 2014).
